Counter-ions that a name gives are not always drawn.
Target: T1, hNET (Homo sapiens, UniProt P23975)
T1 construct: expressed in transfected cells
Assay: Norepinephrine (NE) uptake assay in MDCK-Net6 cells stably transfected with human hNET
Format: cell-based
Conditions: [3H]NE uptake; for inhibition at 1 µM: MDCK-Net6, 1 μM test compound
Procedure: MDCK-Net6 cells, stably transfected with human hNET (Pacholczyk, T., R. D. Blakely, and S. G. Amara, Nature, 1991, 350(6316): p. 350-4) were cultured in growth medium containing high glucose DMEM (Gibco, Cat. No. 11995), 10% FBS (dialyzed, heat-inactivated, US Bio-Technologies, Lot FBD1129HI) and 500 μg/ml G418 (Gibco, Cat. No. 10131). Cells were plated at 300,000/T75 flask and cells were split twice weekly. The JAR cell line (human placental choriocarcinoma) was purchased from ATCC (Cat. No. HTB-144). The cells were cultured in growth medium containing RPMI 1640 (Gibco, Cat. No. 72400), 10% FBS (Irvine, Cat. No. 3000), 1% sodium pyruvate (Gibco, Cat. No. 1136) and 0.25% glucose. Cells were plated at 250,000 cells/T75 flask and split twice weekly. For all assays, cells were plated in Wallac 96-well sterile plates (PerkinElmer, Cat. No. 3983498).
Norepinephrine (NE) Uptake Assay
On day 1, cells were plated at 3,000 cells/well in growth medium and maintained in a cell incubator (37° C., 5% CO2). On day 2, growth medium was replaced with 200 μl of assay buffer (25 mM HEPES; 120 mM NaCl; 5 mM KCl; 2.5 mM CaCl2; 1.2 mM MgSO4; 2 mg/ml glucose (pH 7.4, 37° C.)) containing 0.2 mg/ml ascorbic acid and 10 μM pargyline. Plates containing cells with […] of assay buffer were equilibrated for 10 minutes at 37° C. prior to addition of compounds. A stock solution of desipramine was prepared in DMSO (10 mM) and delivered to triplicate wells containing cells for a final test concentration of 1 μM. Data from these wells were used to define non-specific NE uptake (minimum NE uptake). Test compounds were prepared in DMSO (10 mM) and diluted in assay buffer according to test range (1 to 10,000 nM). Twenty-five microliters of assay buffer (maximum NE uptake) or test compound were added directly to triplicate wells containing cells in 200 μl of assay buffer. The cells in assay buffer with test compounds were incubated for 20 minutes at 37° C. To initiate the NE uptake, [^3H]NE diluted in assay buffer (120 nM final assay concentration) was delivered in 25 μl aliquots to each well and the plates were incubated for 5 minutes (37° C.). The reaction was terminated by decanting the supernatant from the plate. The plates containing cells were washed twice with 200 μl assay buffer (37° C.) to remove free radioligand. The plates were then inverted, left to dry for 2 minutes, then reinverted and air-dried for an additional 10 minutes. The cells were lysed in 25 μl of 0.25 N NaOH solution (4° C.), placed on a shake table and vigorously shaken for 5 minutes. After cell lysis, 75 μl of scintillation cocktail was added to each well and the plates were sealed with film tape. The plates were returned to the shake table and vigorously shaken for a minimum of 10 minutes to ensure adequate partitioning of organic and aqueous solutions. The plates were counted in a Wallac Microbeta counter (PerkinElmer) to collect the raw cpm data.
For each experiment, a data stream of cpm values collected from the Wallac Microbeta counter was downloaded to a Microsoft Excel statistical application program. Calculations of EC50 values were made using the transformed-both-sides logistic dose response program written by Wyeth Biometrics Department. The statistical program uses mean cpm values from wells representing maximum binding or uptake (assay buffer) and mean cpm values from wells representing minimum binding or uptake ((1 μM desipramine (hNET) or 1 μM paroxetine (hSERT)). Estimation of the EC50 value was completed on a log scale and the line was fit between the maximum and minimum binding or uptake values. All graphic data representation was generated by normalizing each data point to a mean percent based on the maximum and minimum binding or uptake values. The EC50 values reported from multiple experiments were calculated by pooling the raw data from each experiment and analyzing the pooled data as one experiment.

T1 sequence (P23975 whole entry): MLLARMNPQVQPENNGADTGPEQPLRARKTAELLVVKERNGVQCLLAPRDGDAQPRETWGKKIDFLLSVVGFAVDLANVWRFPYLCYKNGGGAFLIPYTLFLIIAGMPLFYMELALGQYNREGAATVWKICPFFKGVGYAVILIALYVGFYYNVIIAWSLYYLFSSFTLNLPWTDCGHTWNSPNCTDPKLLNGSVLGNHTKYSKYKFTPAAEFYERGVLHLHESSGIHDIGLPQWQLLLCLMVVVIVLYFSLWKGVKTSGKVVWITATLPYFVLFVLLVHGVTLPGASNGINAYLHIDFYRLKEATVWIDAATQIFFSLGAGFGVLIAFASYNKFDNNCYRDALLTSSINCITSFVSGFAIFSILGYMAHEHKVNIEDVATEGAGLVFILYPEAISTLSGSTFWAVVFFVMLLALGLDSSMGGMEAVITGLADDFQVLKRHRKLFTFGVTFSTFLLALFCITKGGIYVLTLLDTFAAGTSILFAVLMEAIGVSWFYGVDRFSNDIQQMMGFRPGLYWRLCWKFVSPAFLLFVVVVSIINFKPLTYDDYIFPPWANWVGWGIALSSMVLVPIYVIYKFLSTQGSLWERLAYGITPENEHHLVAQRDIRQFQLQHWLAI

| Structure (SMILES) | inhibition at 1 µM [%] | inhibition at 10 µM (MDCK-Net6, 10 μM test compound (stated in cell)) [%] |
| --- | --- | --- |
| N[C@H]1CCN(CC(c2ccc(OCc3ccccc3)c(Cl)c2)C2(O)CCCCC2)C1 (stereo partly drawn) [Example 210, 1-{2-[(3S)-3-aminopyrrolidin-1-yl]-1-[4-(benzyloxy)-3-chlorophenyl]ethyl}cyclohexanol dihydrochloride] | 88.8 |  |
| CN(C)[C@H]1CCN(CC(c2ccc(OCc3ccccc3)c(Cl)c2)C2(O)CCCCC2)C1 (stereo partly drawn) [Example 211, 1-{1-[4-(benzyloxy)-3-chlorophenyl]-2-[(3S)-3-(dimethylamino)pyrrolidin-1-yl]ethyl}cyclohexanol dihydrochloride] | 95.6 |  |
| CN[C@H]1CCN(CC(c2ccc(OCc3ccccc3)cc2)C2(O)CCCCC2)C1 (stereo partly drawn) [Example 212, 1-{1-[4-(benzyloxy)phenyl]-2-[(3S)-3-(methylamino)pyrrolidin-1-yl]ethyl}cyclohexanol dihydrochloride] | 84.8 |  |
| N[C@H]1CCN(CC(c2ccc(OCc3ccccc3)cc2)C2(O)CCCCC2)C1 (stereo partly drawn) [Example 213, 1-{2-[(3S)-3-aminopyrrolidin-1-yl]-1-[4 (benzyloxy)phenyl]ethyl}cyclohexanol dihydrochloride] | 84.5 |  |
| CN(C)[C@H]1CCN(CC(c2ccc(OCc3ccccc3)cc2)C2(O)CCCCC2)C1 (stereo partly drawn) [Example 214, 1-{1-[4-(benzyloxy)phenyl]-2-[(3S)-3-(dimethylamino)pyrrolidin-1-yl]ethyl}cyclohexanol dihydrochloride] | 65 |  |
| CN[C@H]1CCN(CC(c2cccc(OC(F)(F)F)c2)C2(O)CCCCC2)C1 (stereo partly drawn) [Example 215, 1-{2-[(3S)-3-(methylamino)pyrrolidin-1-yl]-1-[3-(trifluoromethoxy)phenyl]ethyl}cyclohexanol dihydrochloride] | 30.2 |  |
| N[C@H]1CCN(CC(c2cccc(OC(F)(F)F)c2)C2(O)CCCCC2)C1 (stereo partly drawn) [Example 216, 1-{2-[(3S)-3-aminopyrrolidin-1-yl]-1-[3-(trifluoromethoxy)phenyl]ethyl}cyclohexanol dihydrochloride] | 38.9 |  |
| CN(C)[C@H]1CCN(CC(c2cccc(OC(F)(F)F)c2)C2(O)CCCCC2)C1 (stereo partly drawn) [Example 217, 1-{2-[(3S)-3-(dimethylamino)pyrrolidin-1-yl]-1-[3-(trifluoromethoxy)phenyl]ethyl}cyclohexanol dihydrochloride] |  | 84.2 |
| CN[C@@H]1CCN(CC(c2cccc(OC(F)(F)F)c2)C2(O)CCCCC2)C1 (stereo partly drawn) [Example 218, 1-{2-[(3R)-3-(methylamino)pyrrolidin-1-yl]-1-[3-(trifluoromethoxy)phenyl]ethyl}cyclohexanol dihydrochloride] | 42 |  |
| CN(C)[C@@H]1CCN(CC(c2cccc(OC(F)(F)F)c2)C2(O)CCCCC2)C1 (stereo partly drawn) [Example 219, 1-{2-[(3R)-3-(dimethylamino)pyrrolidin-1-yl]-1-[3-(trifluoromethoxy)phenyl]ethyl}cyclohexanol dihydrochloride] | 53.1 |  |
| CN[C@H]1CCN(CC(c2cccc(C(F)(F)F)c2)C2(O)CCCCC2)C1 (stereo partly drawn) [Example 220, 1-{2-[(3S)-3-(methylamino)pyrrolidin-1-yl]-1-[3-(trifluoromethyl)phenyl]ethyl}cyclohexanol dihydrochloride] | 27.3 |  |
| N[C@H]1CCN(CC(c2cccc(C(F)(F)F)c2)C2(O)CCCCC2)C1 (stereo partly drawn) [Example 221, 1-{2-[(3S)-3-aminopyrrolidin-1-yl]-1-[3-(trifluoromethyl)phenyl]ethyl}cyclohexanol dihydrochloride] | 63.9 |  |
| CN(C)[C@H]1CCN(CC(c2cccc(C(F)(F)F)c2)C2(O)CCCCC2)C1 (stereo partly drawn) [Example 222, 1-{2-[(3S)-3-(dimethylamino)pyrrolidin-1-yl]-1-[3-(trifluoromethyl)phenyl]ethyl}cyclohexanol dihydrochloride] | 31.9 |  |
| N[C@@H]1CCN(CC(c2cccc(C(F)(F)F)c2)C2(O)CCCCC2)C1 (stereo partly drawn) [Example 224, 1-{2-[(3R)-3-aminopyrrolidin-1-yl]-1-[3-(trifluoromethyl)phenyl]ethyl}cyclohexanol dihydrochloride] | 27.5 |  |
| CN(C)[C@@H]1CCN(CC(c2cccc(C(F)(F)F)c2)C2(O)CCCCC2)C1 (stereo partly drawn) [Example 225, 1-{2-[(3R)-3-(dimethylamino)pyrrolidin-1-yl]-1-[3-(trifluoromethyl)phenyl]ethyl}cyclohexanol dihydrochloride] | 84 |  |
| CNC1CCN(CC(c2cccc(Cl)c2)C2CCCC2)CC1 (stereo not shown) [Example 228, 1-[2-(3-chlorophenyl)-2-cyclopentylethyl]-N-methylpiperidin-4-amine dihydrochloride] | 84.2 |  |
| CN(C)C1CCN(CC(c2cccc(Cl)c2)C2CCCC2)CC1 (stereo not shown) [Example 229, 1-[2-(3-chlorophenyl)-2-cyclopentylethyl]-N,N-dimethylpiperidin-4-amine dihydrochloride] | 87.3 |  |
| CNC1CCN(CC(c2cccc(Cl)c2)C2CCCCC2)CC1 (stereo not shown) [Example 232, 1-[2-(3-chlorophenyl)-2-cyclohexylethyl]-N-methylpiperidin-4-amine dihydrochloride] | 79.1 |  |
| CN(C)C1CCN(CC(c2cccc(Cl)c2)C2CCCCC2)CC1 (stereo not shown) [Example 233, 1-[2-(3-chlorophenyl)-2-cyclohexylethyl]-N,N-dimethylpiperidin-4-amine dihydrochloride] | 91.1 |  |
| CNC1CCN(CC(c2cccc(Cl)c2)C2CCCCCC2)CC1 (stereo not shown) [Example 236, 1-[2-(3-chlorophenyl)-2-cycloheptylethyl]-N-methylpiperidin-4-amine dihydrochloride] | 49.7 |  |
| CN(C)C1CCN(CC(c2cccc(Cl)c2)C2CCCCCC2)CC1 (stereo not shown) [Example 237, 1-[2-(3-chlorophenyl)-2-cycloheptylethyl]-N,N-dimethylpiperidin-4-amine dihydrochloride] | 81.9 |  |
| NC1CCN(CC(c2cccc(Cl)c2)C2CCCCC2O)CC1 (stereo not shown) [Example 239, 2-[2-(4-aminopiperidin-1-yl)-1-(3-chlorophenyl)ethyl]cyclohexanol dihydrochloride] | 81.8 |  |
| OC1CCN(CC(c2cccc(OC(F)(F)F)c2)C2(O)CCCCC2)CC1 (stereo not shown) [Example 240, 1-{2-(1-hydroxycyclohexyl)-2-[3-(trifluoromethoxy)phenyl]ethyl}piperidin-4-ol hydrochloride] | 4.4 |  |
| OC1CCN(CC(c2ccc(OCc3ccccc3)c(Cl)c2)C2(O)CCCCC2)CC1 (stereo not shown) [Example 241, 1-[2-[4-(benzyloxy)-3-chlorophenyl]-2-(1-hydroxycyclohexyl)ethyl]piperidin-4-ol hydrochloride] | 72.5 |  |
| COC1CCN(CC(c2ccc(OCc3ccccc3)c(Cl)c2)C2(O)CCCCC2)CC1 (stereo not shown) [Example 242, 1-[1-[4-(benzyloxy)-3-chlorophenyl]-2-(4-methoxypiperidin-1-yl)ethyl]cyclohexanol hydrochloride] | 2 |  |
| CC(C)(O)C(CN1CCC(N)CC1)c1cccc(Cl)c1 (stereo not shown) [Example 273, 4-(4-aminopiperidin-1-yl)-3-(3-chlorophenyl)-2-methylbutan-2-ol dihydrochloride] | 79 |  |
| CN(C)C1CCN(CC(c2cccc(Cl)c2)C(C)(C)O)CC1 (stereo not shown) [Example 274, 3-(3-chlorophenyl)-4-[4-(dimethylamino)piperidin-1-yl]-2-methylbutan-2-ol dihydrochloride] | 50 |  |
| COc1ccc2scc(C(CN3CCC(N)CC3)C3(O)CCCCC3)c2c1 (stereo not shown) [Example 280, 1-[2-(4-aminopiperidin-1-yl)-1-(5-methoxy-1-benzothien-3-yl)ethyl]cyclohexanol dihydrochloride] | 18 |  |

Reference: patent publication US7550485B2, “Substituted N-heterocycle derivatives and methods of their use” (Wyeth, priority 2003, dated 2009)
